Measurements from the NIST ThermoML archive (doi:10.1021/acs.jced.5b00251).
Numbers after ± are expanded uncertainties.

Test: refractive index (other wavelength) (dimensionless); xn = mol fraction of the nth substance listed
Conditions: 101 kPa, Liquid, Standard Abbe refractometry

c1ccc2c(c1)CCCC2 [1,2,3,4-tetrahydronaphthalene] + CCCCCCCCCCCC
refractive index
Conditions | x1 = 0.1014 | x1 = 0.2024 | x1 = 0.3032 | x1 = 0.4036 | x1 = 0.5038 | x1 = 0.6036 | x1 = 0.7032 | x1 = 0.8024 | x1 = 0.9014
293.15 K, Wavelength=436.1 nm | 1.44127 ± 0.00073 | 1.45203 ± 0.00074 | 1.46314 ± 0.00079 | 1.47515 ± 0.00079 | 1.48812 ± 0.00078 | 1.50126 ± 0.00079 | 1.51481 ± 0.00082 | 1.52971 ± 0.00081 | 1.54558 ± 0.00078
293.15 K, Wavelength=513.9 nm | 1.43473 ± 0.00085 | 1.44489 ± 0.00081 | 1.45538 ± 0.00081 | 1.46671 ± 0.00085 | 1.47843 ± 0.00089 | 1.49106 ± 0.00088 | 1.50417 ± 0.00091 | 1.51804 ± 0.00092 | 1.53275 ± 0.001
293.15 K, Wavelength=589.3 nm | 1.43105 ± 0.00075 | 1.44086 ± 0.00075 | 1.45101 ± 0.00074 | 1.46197 ± 0.00077 | 1.47329 ± 0.00082 | 1.48552 ± 0.0008 | 1.49803 ± 0.00083 | 1.51156 ± 0.00079 | 1.52591 ± 0.0008
293.15 K, Wavelength=633.2 nm | 1.42949 ± 0.00072 | 1.43917 ± 0.00075 | 1.44918 ± 0.00075 | 1.45999 ± 0.00075 | 1.47113 ± 0.00078 | 1.48318 ± 0.00077 | 1.49553 ± 0.00077 | 1.50887 ± 0.00078 | 1.52288 ± 0.0008
293.15 K, Wavelength=657.2 nm | 1.42878 ± 0.0007 | 1.43896 ± 0.00075 | 1.44835 ± 0.00077 | 1.45921 ± 0.00078 | 1.47078 ± 0.00071 | 1.48194 ± 0.00079 | 1.4944 ± 0.00082 | 1.50801 ± 0.00082 | 1.52229 ± 0.00074
298.15 K, Wavelength=436.1 nm | 1.439 ± 0.00073 | 1.44978 ± 0.00074 | 1.46073 ± 0.00076 | 1.47277 ± 0.00074 | 1.48561 ± 0.00078 | 1.49875 ± 0.00077 | 1.51238 ± 0.00077 | 1.52724 ± 0.00078 | 1.54301 ± 0.00079
298.15 K, Wavelength=513.9 nm | 1.43249 ± 0.00073 | 1.44267 ± 0.00073 | 1.4533 ± 0.00073 | 1.46438 ± 0.00073 | 1.47612 ± 0.00075 | 1.48874 ± 0.00075 | 1.50164 ± 0.00076 | 1.51563 ± 0.00075 | 1.53046 ± 0.00076
298.15 K, Wavelength=589.3 nm | 1.42884 ± 0.00072 | 1.43868 ± 0.00072 | 1.44896 ± 0.00074 | 1.45965 ± 0.00074 | 1.47078 ± 0.00075 | 1.48302 ± 0.00074 | 1.4955 ± 0.00075 | 1.50927 ± 0.00074 | 1.52353 ± 0.00076
298.15 K, Wavelength=633.2 nm | 1.42729 ± 0.00072 | 1.43699 ± 0.00072 | 1.44692 ± 0.00074 | 1.45768 ± 0.00073 | 1.4689 ± 0.00072 | 1.4807 ± 0.00073 | 1.4932 ± 0.00074 | 1.50652 ± 0.00074 | 1.52049 ± 0.00075
298.15 K, Wavelength=657.2 nm | 1.42675 ± 0.00072 | 1.43623 ± 0.00075 | 1.44627 ± 0.00072 | 1.45678 ± 0.00074 | 1.46851 ± 0.00073 | 1.47967 ± 0.00073 | 1.49181 ± 0.00075 | 1.50529 ± 0.00077 | 1.5199 ± 0.00075
303.15 K, Wavelength=436.1 nm | 1.43671 ± 0.00072 | 1.44738 ± 0.00075 | 1.45818 ± 0.00075 | 1.4705 ± 0.00076 | 1.48295 ± 0.00077 | 1.49619 ± 0.00077 | 1.50983 ± 0.00076 | 1.52452 ± 0.0008 | 1.54034 ± 0.00077
303.15 K, Wavelength=513.9 nm | 1.43024 ± 0.00072 | 1.44033 ± 0.00074 | 1.45084 ± 0.00074 | 1.46216 ± 0.00073 | 1.47359 ± 0.00076 | 1.48633 ± 0.00075 | 1.49917 ± 0.00075 | 1.51321 ± 0.00076 | 1.52785 ± 0.00076
303.15 K, Wavelength=589.3 nm | 1.42659 ± 0.00071 | 1.43636 ± 0.00074 | 1.44635 ± 0.00075 | 1.45733 ± 0.00074 | 1.46841 ± 0.00073 | 1.48085 ± 0.00073 | 1.49318 ± 0.00074 | 1.50685 ± 0.00076 | 1.52095 ± 0.00075
303.15 K, Wavelength=633.2 nm | 1.42505 ± 0.00071 | 1.4347 ± 0.00073 | 1.44438 ± 0.00074 | 1.45549 ± 0.00073 | 1.46668 ± 0.00073 | 1.47855 ± 0.00073 | 1.49077 ± 0.00074 | 1.50415 ± 0.00076 | 1.51798 ± 0.00075
303.15 K, Wavelength=657.2 nm | 1.42434 ± 0.00072 | 1.434 ± 0.00073 | 1.44387 ± 0.00076 | 1.45441 ± 0.00075 | 1.46615 ± 0.00074 | 1.47729 ± 0.00074 | 1.48949 ± 0.00075 | 1.50284 ± 0.00077 | 1.51741 ± 0.00074
308.15 K, Wavelength=436.1 nm | 1.43455 ± 0.00073 | 1.44495 ± 0.00073 | 1.45589 ± 0.00075 | 1.46783 ± 0.00078 | 1.4805 ± 0.00075 | 1.49371 ± 0.00077 | 1.50749 ± 0.00076 | 1.52185 ± 0.00078 | 1.538 ± 0.00077
308.15 K, Wavelength=513.9 nm | 1.42811 ± 0.00072 | 1.43794 ± 0.00074 | 1.44864 ± 0.00074 | 1.45985 ± 0.00073 | 1.47118 ± 0.00075 | 1.48392 ± 0.00074 | 1.49684 ± 0.00075 | 1.51075 ± 0.00076 | 1.52559 ± 0.00075
308.15 K, Wavelength=589.3 nm | 1.4245 ± 0.00071 | 1.434 ± 0.00073 | 1.44408 ± 0.00074 | 1.45488 ± 0.00075 | 1.46618 ± 0.00074 | 1.47848 ± 0.00073 | 1.49085 ± 0.00073 | 1.50425 ± 0.00077 | 1.51872 ± 0.00074
308.15 K, Wavelength=633.2 nm | 1.42297 ± 0.00072 | 1.43234 ± 0.00072 | 1.44222 ± 0.00073 | 1.45318 ± 0.00074 | 1.46436 ± 0.00075 | 1.4762 ± 0.00073 | 1.48855 ± 0.00073 | 1.50145 ± 0.00075 | 1.51565 ± 0.00074
308.15 K, Wavelength=657.2 nm | 1.42224 ± 0.00072 | 1.4316 ± 0.00074 | 1.44127 ± 0.00075 | 1.45195 ± 0.00074 | 1.46385 ± 0.00073 | 1.47498 ± 0.00075 | 1.48694 ± 0.00075 | 1.50013 ± 0.00077 | 1.51517 ± 0.00073
313.15 K, Wavelength=436.1 nm | 1.43218 ± 0.00073 | 1.44283 ± 0.00074 | 1.45339 ± 0.00077 | 1.46524 ± 0.00077 | 1.47822 ± 0.00075 | 1.49111 ± 0.00078 | 1.50491 ± 0.00077 | 1.51939 ± 0.00078 | 1.5354 ± 0.00077
313.15 K, Wavelength=513.9 nm | 1.42576 ± 0.00072 | 1.43568 ± 0.00073 | 1.44614 ± 0.00073 | 1.45759 ± 0.00076 | 1.46885 ± 0.00075 | 1.48167 ± 0.00074 | 1.49443 ± 0.00076 | 1.50825 ± 0.00077 | 1.52307 ± 0.00075
313.15 K, Wavelength=589.3 nm | 1.42227 ± 0.00072 | 1.43177 ± 0.00074 | 1.44157 ± 0.00073 | 1.45242 ± 0.00076 | 1.46372 ± 0.00074 | 1.47625 ± 0.00073 | 1.48857 ± 0.00074 | 1.50166 ± 0.00077 | 1.51623 ± 0.00074
313.15 K, Wavelength=633.2 nm | 1.42066 ± 0.00072 | 1.43026 ± 0.00073 | 1.43979 ± 0.00072 | 1.45075 ± 0.00075 | 1.46185 ± 0.00073 | 1.47398 ± 0.00073 | 1.48614 ± 0.00074 | 1.49928 ± 0.00074 | 1.51325 ± 0.00072
313.15 K, Wavelength=657.2 nm | 1.41998 ± 0.0007 | 1.42919 ± 0.00073 | 1.439 ± 0.00071 | 1.44965 ± 0.00074 | 1.46161 ± 0.00073 | 1.47245 ± 0.00075 | 1.48468 ± 0.00074 | 1.49759 ± 0.00076 | 1.51275 ± 0.00074
318.15 K, Wavelength=436.1 nm | 1.43001 ± 0.00072 | 1.44026 ± 0.00075 | 1.45084 ± 0.00071 | 1.46269 ± 0.00072 | 1.47578 ± 0.00077 | 1.48857 ± 0.00073 | 1.50241 ± 0.00075 | 1.51672 ± 0.00071 | 1.5331 ± 0.00075
318.15 K, Wavelength=513.9 nm | 1.42366 ± 0.00062 | 1.43333 ± 0.00065 | 1.44405 ± 0.00066 | 1.45487 ± 0.0007 | 1.46645 ± 0.00063 | 1.47929 ± 0.00067 | 1.49184 ± 0.00064 | 1.50571 ± 0.00065 | 1.52083 ± 0.00059
318.15 K, Wavelength=589.3 nm | 1.42009 ± 0.00069 | 1.42933 ± 0.0007 | 1.43955 ± 0.00067 | 1.44985 ± 0.00069 | 1.46145 ± 0.00067 | 1.47389 ± 0.00072 | 1.48615 ± 0.0007 | 1.49906 ± 0.00068 | 1.51403 ± 0.00067
318.15 K, Wavelength=633.2 nm | 1.41859 ± 0.00068 | 1.42777 ± 0.00073 | 1.43785 ± 0.00068 | 1.44826 ± 0.00073 | 1.45981 ± 0.00068 | 1.47165 ± 0.00073 | 1.48389 ± 0.00073 | 1.49667 ± 0.00073 | 1.51123 ± 0.00066
318.15 K, Wavelength=657.2 nm | 1.41814 ± 0.00068 | 1.42702 ± 0.00067 | 1.43701 ± 0.00068 | 1.44718 ± 0.00067 | 1.45934 ± 0.00079 | 1.47014 ± 0.00068 | 1.48216 ± 0.00072 | 1.49507 ± 0.00066 | 1.51044 ± 0.00073
